Data reported in ChEMBL document CHEMBL1201862, “PubChem BioAssay data set” (2004).
Activity calls are given as the source filed them. Cut-off read from the data, not from the text of the source: actives have a measured IC50 and inactives only a lower limit.

Target: Envelope glycoprotein gp160 (Human immunodeficiency virus 1, UniProt Q6QLK5)
Assay: inhibitors of HIV fusion peptide binding, primary screen, biochemical, uHTS, fluorescence dequenching (AID 1986)

Chain of Envelope glycoprotein gp160 (Q6QLK5 whole entry, the tested form may be a part): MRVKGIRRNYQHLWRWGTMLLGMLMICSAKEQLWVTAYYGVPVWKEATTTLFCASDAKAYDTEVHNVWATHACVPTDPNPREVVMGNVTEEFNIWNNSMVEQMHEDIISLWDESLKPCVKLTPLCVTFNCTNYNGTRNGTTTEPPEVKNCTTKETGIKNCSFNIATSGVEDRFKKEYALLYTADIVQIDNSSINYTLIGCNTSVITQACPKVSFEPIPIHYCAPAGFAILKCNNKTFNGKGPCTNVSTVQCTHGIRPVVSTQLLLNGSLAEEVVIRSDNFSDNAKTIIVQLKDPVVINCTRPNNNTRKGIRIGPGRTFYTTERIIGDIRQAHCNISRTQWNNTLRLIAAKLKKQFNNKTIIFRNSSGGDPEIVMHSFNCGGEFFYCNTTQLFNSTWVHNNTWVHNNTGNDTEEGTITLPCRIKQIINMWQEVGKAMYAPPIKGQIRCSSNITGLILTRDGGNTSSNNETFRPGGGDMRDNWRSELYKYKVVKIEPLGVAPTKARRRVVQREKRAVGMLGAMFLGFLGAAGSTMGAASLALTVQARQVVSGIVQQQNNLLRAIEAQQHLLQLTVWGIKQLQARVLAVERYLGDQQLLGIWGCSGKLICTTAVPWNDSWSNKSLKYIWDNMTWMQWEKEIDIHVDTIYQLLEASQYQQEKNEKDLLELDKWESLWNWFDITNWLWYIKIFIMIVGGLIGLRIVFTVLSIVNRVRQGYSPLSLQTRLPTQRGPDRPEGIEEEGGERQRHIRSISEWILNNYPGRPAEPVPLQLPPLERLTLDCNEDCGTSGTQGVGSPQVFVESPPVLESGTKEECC

Row | Structure (SMILES) | IC50
1 | CN(C)S(=O)(=O)c1cccc(-c2nn(-c3ccccc3)cc2/C=C2\SC(=S)NC2=O)c1 | 11.8 µM (active)
2 | COc1cc(C(c2c(C(=O)O)[nH]c3ccccc23)c2c(C(=O)O)[nH]c3ccccc23)ccc1OCc1ccccc1 | 7.01 µM (active)
